Reference: patent publication US20260285850A1, “SUBSTITUTED OXAZOLIDINONES AND IMIDAZOLINONES AS HERBICIDES” (FMC CORPORATION, priority 2023, published 2026)

Experiments:
Assay type in all cases: in vivo
[1] = test system: ragweed (common ragweed, Ambrosia artemisiifolia); assay: Test A postemergence application, visual injury rating 0-100; conditions: Postemergence
Procedure, shortened: (§1)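 Preemergence directed soil spray or postemergence spray (2-10 cm, 1-2 leaf); loam/sand mix; compound in non-phytotoxic solvent + surfactant. Greenhouse, 10 d. Visual injury vs untreated, 0 = none, 100 = complete control.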

[2] = test system: palmer (palmer amaranth, palmer pigweed, Amaranthus palmeri); assay: as above; conditions: Postemergence
Procedure, shortened: as §1

corn (Zea mays) [3] = assay: as above; conditions: Postemergence
Procedure, shortened: as §1

[4] = test system: blackgrass (Alopecurus myosuroides); assay: as above; conditions: Postemergence
Procedure, shortened: as §1

[5] = test system: oat, wild (wild oat, Avena fatua); assay: as above; conditions: Postemergence
Procedure, shortened: as §1

[6] = test system: horseweed (Erigeron canadensis); assay: as above; conditions: Postemergence
Procedure, shortened: as §1

[7] = test system: ryegrass, Italian (italian ryegrass, Lolium multiflorum); assay: as above; conditions: Postemergence
Procedure, shortened: as §1

soybean (Glycine max) [8] = assay: as above; conditions: Postemergence
Procedure, shortened: as §1

[9] = test system: wheat (Triticum aestivum); assay: as above; conditions: Postemergence
Procedure, shortened: as §1

[10] = test system: galium (catchweed bedstraw, Galium aparine); assay: as above; conditions: Postemergence
Procedure, shortened: as §1

kochia (Bassia scoparia) [11] = assay: as above; conditions: Postemergence
Procedure, shortened: as §1

[12] = test system: barnyardgrass (Echinochloa crus-galli); assay: as above; conditions: Postemergence
Procedure, shortened: as §1

[13] = test system: ragweed (common ragweed, Ambrosia artemisiifolia); assay: Test A preemergence soil spray, visual injury rating 0-100; conditions: 10 days, 0 = no effect, 100 = complete control
Procedure, shortened: as §1

[14] = test system: palmer (palmer amaranth, palmer pigweed, Amaranthus palmeri); assay: as above; conditions: 10 days, 0 = no effect, 100 = complete control
Procedure, shortened: as §1

corn (Zea mays) [15] = assay: as above; conditions: 10 days, 0 = no effect, 100 = complete control
Procedure, shortened: as §1

[16] = test system: blackgrass (Alopecurus myosuroides); assay: as above; conditions: 10 days, 0 = no effect, 100 = complete control
Procedure, shortened: as §1

[17] = test system: oat, wild (wild oat, Avena fatua); assay: as above; conditions: 10 days, 0 = no effect, 100 = complete control
Procedure, shortened: as §1

[18] = test system: ryegrass, Italian (italian ryegrass, Lolium multiflorum); assay: as above; conditions: 10 days, 0 = no effect, 100 = complete control
Procedure, shortened: as §1

soybean (Glycine max) [19] = assay: as above; conditions: 10 days, 0 = no effect, 100 = complete control
Procedure, shortened: as §1

[20] = test system: wheat (Triticum aestivum); assay: as above; conditions: 10 days, 0 = no effect, 100 = complete control
Procedure, shortened: as §1

kochia (Bassia scoparia) [21] = assay: as above; conditions: 10 days, 0 = no effect, 100 = complete control
Procedure, shortened: as §1

[22] = test system: barnyardgrass (Echinochloa crus-galli); assay: as above; conditions: 10 days, 0 = no effect, 100 = complete control
Procedure, shortened: as §1

[23] = test system: ducksalad (Heteranthera limosa); assay: Test B flooded paddy test, visual plant response rating 0-100; conditions: 250 g ai/ha, Flood, applied to paddy water, evaluated after 13 days
Procedure, shortened: (§2)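 Greenhouse, 13 d. Seedlings at 2-leaf stage, pots flooded to 3 cm, compound delivered into floodwater, water level held constant. Evaluated visually relative to controls.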

[24] = test system: sedge, umbrella (small-flower umbrella sedge, Cyperus difformis); assay: as above; conditions: 250 g ai/ha, Flood, applied to paddy water, evaluated after 13 days
Procedure, shortened: as §2

[25] = test system: barnyardgrass (Echinochloa crusgalli); assay: as above; conditions: 250 g ai/ha, Flood, applied to paddy water, evaluated after 13 days
Procedure, shortened: as §2

rice (Oryza sativa) = assay: as above; conditions: 250 g ai/ha, Flood, applied to paddy water, evaluated after 13 days
Procedure, shortened: as §2

[26] = 31 g ai/ha, greenhouse 10 days, 0 no effect, 100 complete control
[27] = 125 g ai/ha, 10 days, 0 is no effect, 100 is complete control

## CC(C)OC(=O)C1=CCC(NC(=O)C2(C)CN(c3cc(Cl)cc(Cl)c3)C(=O)O2)C1 (stereo not drawn) [Compound 70]
[1]; [26]
  Ragweed plant response rating (0 to 100 scale): 0
[1]; [27]
  Ragweed plant response rating (0 to 100 scale): 50
[2]; [26]
  Amaranth, Palmer / Pigweed, Palmer plant response rating (0 to 100 scale): 90
[2]; [27]
  Amaranth, Palmer / Pigweed, Palmer plant response rating (0 to 100 scale): 90
Corn (Zea mays) [3]; [26]
  Corn plant response rating (0 to 100 scale): 90
Corn (Zea mays) [3]; [27]
  Corn plant response rating (0 to 100 scale): 100
[4]; [26]
  Blackgrass plant response rating (0 to 100 scale): 50
[4]; [27]
  Blackgrass plant response rating (0 to 100 scale): 80
[5]; [26]
  Oat, Wild plant response rating (0 to 100 scale): 30
[5]; [27]
  Oat, Wild plant response rating (0 to 100 scale): 80
[6]; [26]
  Horseweed plant response rating (0 to 100 scale): 0
[6]; [27]
  Horseweed plant response rating (0 to 100 scale): 0
[7]; [26]
  Ryegrass, Italian plant response rating (0 to 100 scale): 70
[7]; [27]
  Ryegrass, Italian plant response rating (0 to 100 scale): 70
Soybean (Glycine max) [8]; [26]
  Soybean plant response rating (0 to 100 scale): 80
Soybean (Glycine max) [8]; [27]
  Soybean plant response rating (0 to 100 scale): 90
[9]; [26]
  Wheat plant response rating (0 to 100 scale): 80
[9]; [27]
  Wheat plant response rating (0 to 100 scale): 90
[10]; [26]
  Galium plant response rating (0 to 100 scale): 80
[10]; [27]
  Galium plant response rating (0 to 100 scale): 80
Kochia (Bassia scoparia) [11]; [26]
  Kochia plant response rating (0 to 100 scale): 80
Kochia (Bassia scoparia) [11]; [27]
  Kochia plant response rating (0 to 100 scale): 80
[12]; [26]
  Barnyardgrass plant response rating (0 to 100 scale): 90
[12]; [27]
  Barnyardgrass plant response rating (0 to 100 scale): 90
[13]; 31 g ai/ha
  Ragweed plant response rating (0-100): 10
[13]; 125 g ai/ha
  Ragweed plant response rating (0 to 100 scale): 10
[14]; 31 g ai/ha
  Amaranth, Palmer plant response rating (0-100): 30
[14]; 125 g ai/ha
  Amaranth, Palmer plant response rating (0 to 100 scale): 90
Corn (Zea mays) [15]; 31 g ai/ha
  Corn plant response rating (0-100): 0
Corn (Zea mays) [15]; 125 g ai/ha
  Corn plant response rating (0 to 100 scale): 20
[16]; 31 g ai/ha
  Blackgrass plant response rating (0-100): 10
[16]; 125 g ai/ha
  Blackgrass plant response rating (0 to 100 scale): 30
[17]; 31 g ai/ha
  Oat, Wild plant response rating (0-100): 0
[17]; 125 g ai/ha
  Oat, Wild plant response rating (0 to 100 scale): 20
[18]; 31 g ai/ha
  Ryegrass, Italian plant response rating (0-100): 0
[18]; 125 g ai/ha
  Ryegrass, Italian plant response rating (0 to 100 scale): 70
Soybean (Glycine max) [19]; 31 g ai/ha
  Soybean plant response rating (0-100): 0
Soybean (Glycine max) [19]; 125 g ai/ha
  Soybean plant response rating (0 to 100 scale): 30
[20]; 31 g ai/ha
  Wheat plant response rating (0-100): 0
[20]; 125 g ai/ha
  Wheat plant response rating (0 to 100 scale): 70
Kochia (Bassia scoparia) [21]; 31 g ai/ha
  Kochia plant response rating (0-100): 0
Kochia (Bassia scoparia) [21]; 125 g ai/ha
  Kochia plant response rating (0 to 100 scale): 40
[22]; 31 g ai/ha
  Barnyardgrass plant response rating (0-100): 30
[22]; 125 g ai/ha
  Barnyardgrass plant response rating (0 to 100 scale): 90
[23]
  Plant response rating, Ducksalad (0 to 100 scale, 0 is no effect and 100 is complete control): 65
[24]
  Plant response rating, Sedge, Umbrella (0 to 100 scale, 0 is no effect and 100 is complete control): 98
[25]
  Plant response rating, Barnyardgrass (0 to 100 scale, 0 is no effect and 100 is complete control): 50
Rice (Oryza sativa)
  Plant response rating, Rice (0 to 100 scale, 0 is no effect and 100 is complete control): 60
